Assay results from patent publication US20030036567A1, “PROPYLENE GLYCOL AS AN AGENT TO STIMUATE THROMBOPOIESIS” (priority 2001, published 2003).
Where two headings read alike, the source gives them in different places.

How the values were obtained:
[1] = occupational exposure; cited from earlier work
[2] = system: CD34+CD38- hematopoietic stem cells; assay: Colony formation from CD34+CD38- hematopoietic stem cells in semi-solid culture; type: cell-based, human; conditions: 500 cells per ml, 14 days, Figure 1
Procedure: Example 3. CD34+CD38- cells isolated from human bone marrow (Poietic Technologies) were counted using a hemocytometer and plated in semi-solid culture media (MethoCult GF+H4435, StemCell Technologies, Vancouver, British Columbia) containing methylcellulose, fetal bovine serum, BSA, recombinant human (rh) SCF, rh GM-CSF, rh G-CSF, rh IL-3, rh IL-6, rh erythropoietin, and L-glutamine to which were added varying concentrations of propylene glycol (FW=76.1 Density=1.04g/ml Fisher Scientific). The cells were plated at a density of 500 cells per 1 ml per 35 mm petri dish. After incubation at 37 °C, 5% CO2 for 14 days, the dishes were scored for colony formation.

[3] = system: Murine bone marrow cells; assay: Long term culture initiating cell assay (LTCIC); type: cell-based, C57bl mice; conditions: 500 ng/ml, Figure 2
Procedure: Example 4. Murine bone marrow was obtained from the femurs of adult C57bl mice, suspended in Myelocult (Stem Cell Technologies, Vancouver Canada), and cells were isolated by centrifugation at 500g for 10 minutes at 4 °C. Viability was determined by Trypan blue exclusion and aliquots were taken for plating efficiency in methylcellulose culture (MethoCult, Stem Cell Technologies). The remaining cell suspension was plated at a density of 6.25 x10^4/well into 24 well plates containing irradiated FBMD-1 feeder layers. To appropriate wells, propylene glycol was added to final concentration of 500 ng/ml. At weekly interval the cells were demidepopulated and fed with 250μl fresh medium. The harvested cells were washed with PBS and added to a 2.5 ml tube of MethoCult. Two 35mm petri dishes containing 1 ml each were plated from each tube. After 10 days incubation at 37 °C, 5% CO2, the dishes were scored for colonies.

[4] = human, in vivo
From the text: Example 1. Patient 1 was a person with a history of congenital aqueductal stenosis diagnosed and treated with a Torkildson shunt. Nineteen months prior to admission, they sustained a minor head injury in a motor vehicle accident resulting in a shunt malfunction with recurrent headaches, necessitating treatment with a ventriculoperitoneal shunt. Consequent subdural hygromas became infected, leaving the patient with marked cognitive and motor impairments. They were transferred to a rehabilitation facility six months prior to admission to our hospital. […] All biochemical and hematologic abnormalities resolved within 36 hours. The patient remained well until four weeks prior to admission when they again developed fever (106), tachycardia (169 bpm), and tachypnea. Similar biochemical and hematological abnormalities were noted including a white blood cell count of 25,000 (per mm^3) and a thrombocyte count of 469,000 (per mm^3). Cultures of blood, urine, and CSF were negative. Within 36 hours the patient returned to baseline. Similar episodes were noted to occur at roughly seven day intervals. CT scans of chest, abdomen and pelvis, and a gallium scan were unremarkable. After the fourth recorded episode, the patient was transferred to our neurological unit for evaluation of an occult ventriculoperitoneal shunt infection or possible hypothalamic dysregulation.
On transfer, the patient was noted to have BP 120/80, HR 88 bpm and T 37.5. The general physical examination was notable only for generalized pallor and contractures of the lower extremities. They were awake but only able to follow single midline one-step commands. […] The patient was treated with kayexalate. The anion gap acidosis resolved within twelve hours. At that time, the patient was noted to develop oliguric renal insufficiency with a BUN of 41 (mg/dl) and creatinine of 2.2 (mg/dl). […] An unusual "green stool" which caked the patient's rectum was collected. Samples of the patient's blood, urine, and stool (collected 17 hours after the recorded onset of symptoms) were sent for toxicologic analysis. […]
In addition, prominent throughout the aspirate were eosinophils, mast cells as well as eo-basophils. Megakaryocytes were abundant.

[5] = Case report Patient 2, ingestion of antifreeze containing 30% propylene glycol; type: in vivo, human
Procedure: Example 2. A person ingested an unknown amount of the antifreeze Freeze Proof containing 30% propylene glycol earlier. Following ingestion, the child acted normally and ate well until approximately 6 hours later when they developed slurred speech, right facial drooping, an abnormal, wobbling gait, and was noted walking into walls and unable sit up by […]. They were the brought to the emergency room approximately 12 hours after ingestion with the above symptoms. At that time a toxicological screen was obtained which was qualitatively positive for propylene glycol. They were then transferred to University Medical Center where their blood pressure was 106/70, pulse was 113, respiration was 18, temperature was 36.3 C. At that time they had slurred speech, good facial symmetry, intact cranial nerve examination, but an unsteady gait, and was drowsy and lethargic but arousable. Their pupils were equal and reactive to light. […] The child was given a charcoal and sorbitol lavage through an oral naso-gastric tube as well as IV fluid therapy with normal saline. Within 4 hours of admission, the child was able to walk and talk well without evidence of slurred speech. The following morning the child was discharged from the hospital with no evidence of the symptoms originally observed.

[6] = system: human proximal tubule (HPT) cells; conditions: normally proliferating cultured HPT cells; cited from earlier work
[7] = single oral dose; cited from earlier work
[8] = diet containing 6 or 12% propylene glycol; cited from earlier work
[9] = accidental intoxication, cited from earlier work

SMILES | bone marrow findings [1] | effect on CFU formed from CD34+ cells [2] | increase of total cell number on the cultures over cells not exposed [3] [%] | BUN [4] [mg/dL] | LDH [4] [U/liter] | SGOT [4] [U/liter] | anion gap [4] | bicarbonate [4] [mmol/L] | bone marrow studies [4] | creatinine [4] [mg/dL] | creatinine kinase [4] [U/liter] | hematologic response to acute exposure [4] | potassium [4] [mmol/L] | biochemical or hematological outcome [5] | concentration with toxic effects [6] [µM] | spleen weight [7] | erythrocyte effects [8] | WBC ([9]; chart review) | anion gap [9]
COC(C)COC(C)CO (stereo not shown) [dipropylene glycol monomethyl ether] | generally hypocellular marrow with decreased myeloid to erythroid ratios and an abundance of stored iron |  |  |  |  |  |  |  |  |  |  |  |  |  |  |  |  |  | 
CC(O)CO (stereo not shown) [propylene glycol, 1,2-propanediol] |  | increased CFU formed from CD34+ cells | 50 | 41 | 528 | 151 | 24 | 16 | relatively hypercellular marrow with increased myeloid precursors and megakaryocytes | 2.2 | 8400 | dramatic leukocytosis and thrombocytosis | 5.8 | no biochemical or hematological abnormalities | 50000 | significant increase in spleen weight | accelerated erythropoiesis and reduction in red blood cell life span | 25,000 per mm^3 | 28
